Reference: patent publication US6946468B1, “3-mercaptopyrrolidines as farnesyl protein transferase inhibitors” (Zeneca Limited, priority 1996, dated 2005)
pIC50: −log10 of the molar value.

Molecular target: T1, Farnesyl protein transferase (FPT) (Homo sapiens, UniProt P49354+P49356)
T1 construct: partially purified from human placenta by ammonium sulphate fractionation; from tissue; host or cells: human placenta
Experiment: Farnesyl protein transferase (FPT) inhibition, tritiated farnesyl pyrophosphate incorporation into Kras (ras-CVIM)
Assay type: biochemical
Details: FPT partially purified from human placenta; 300 nM tritiated farnesyl pyrophosphate, 120 nM ras-CVIM, 20 minutes at 37°
Procedure: Biological activity was tested as follows. Farnesyl protein transferase (FPT) was partially purified from human placenta by ammonium sulphate fractionation followed by a single Q-Sepharose® (Pharmacia, Inc) anion exchange chromatography essentially as described by Ray and Lopez-Belmonte (Ray K P and Lopez-Belmonte J (1992) Biochemical Society Transations 20 494-497). The substrate for FPT was Kras (CVIM C-terminal sequence). The cDNA for oncogenic val12 variant of human c-Ki-ras-2 4B was obtained from the plasmid pSW11-1 (ATCC). This was then subcloned into the polylinker of a suitable expression vector e.g. pIC147. The Kras was obtained after expression in the E. coli strain, BL21. The expression and purification of c-KI-ras-2 4B and the val12 variant in E. coli has also been reported by Lowe et al (Lowe P N et al. J. Biol. Chem. (1991) 266 1672-1678).
Incubations with enzyme contained 300 nM tritiated farnesyl pyrophosphate (DuPont/New England Nuclear), 120 nM ras-CVIM, 50 mM Tris HCl pH 8.0, 5 mM MgCl2, 10 μM ZnCl2, 5 mM dithiotheitol and compounds were added at appropriate concentrations in DMSO (3% final concentration in test and vehicle control). […] Precipitated protein was then collected onto glass fibre filter mats (B) using a Tomte® cell harvester and tritiated label was measured in a Wallac®1204 Betaplate scintillation counter.

pIC50: ~6.38
Compound: O=C(Cc1cccnc1)N(CC(c1ccccc1)c1ccccc1)C[C@@H]1NCC[C@@H]1S (relative stereo) [Example 2]
